{
  "source": "paper PMC10384675",
  "about": "“Novel Thiazolidine-2,4-dione-trimethoxybenzene-thiazole Hybrids as Human Topoisomerases Inhibitors” (Pharmaceuticals, 2023)",
  "key": {"[1]": {"test_system": "MCF-7 breast cancer cells", "assay": "MTT cell viability assay, MCF-7", "assay_type": "cell-based, human", "description": "(§1) All of the synthesized compounds (7a–f) were studied to test their anticancer activity toward the estrogen receptor-positive (ER+) MCF-7 and the triple-negative MDA-MB-231 breast cancer cells (ER-, PR- and HER-2/Neu not overexpressed) and A2058 melanoma cells. Cells were incubated for 72 h with different concentrations of the compounds, and then the viability was checked by the MTT assay. […] Moreover, we checked the cytotoxicity of all of the synthesized compounds against the human MCF-10A non-malignant breast epithelial cells and mouse BALB/3T3 embryonic fibroblasts, in order to evaluate their selectivity on cancer cells.\n(§2) The used cell lines (breast cancer cell lines MCF-7 and MDA-MB-231, melanoma cell line A2058 and human mammary epithelial cell line MCF-10A) were obtained from American Type Culture Collection (ATCC, Manassas, VA, USA) and cultured as already reported. The mouse BALB/3T3 embryonic fibroblasts were also purchased from American Type Culture Collection (ATCC, Manassas, VA, USA) and cultured in DMEM high glucose supplemented with 10% bovine calf serum (BCS) and 100 U mL^−1 penicillin/streptomycin.\n(§3) MTT assay (Sigma Aldrich (St. Louis, MO, USA)) was performed for evaluating the in vitro anticancer activities of the compounds, as previously indicated. Different concentrations (0.1, 1, 10, 25, 50, and 100 μM) of the compounds were employed, with a 72 h endpoint. IC50 values were obtained from the percent (%) of control using GraphPad Prism 9 (GraphPad Software, La Jolla, CA, USA)."}, "[2]": {"test_system": "mouse BALB/3T3 embryonic fibroblasts", "assay": "MTT cytotoxicity assay, BALB/3T3", "assay_type": "cell-based", "details": "72 h, normal cells", "description": "as §1, §2, §3"}, "[3]": {"test_system": "human MCF-10A non-malignant breast epithelial cells", "assay": "MTT cytotoxicity assay, MCF-10A", "assay_type": "cell-based", "details": "72 h, normal cells", "description": "as §1, §2, §3"}, "[4]": {"test_system": "MDA-MB-231 breast cancer cells", "assay": "MTT cell viability assay, MDA-MB-231", "assay_type": "cell-based", "details": "Homo sapiens, 72 h", "description": "as §1, §2, §3"}, "MCF-7 cells": {"test_system": "MCF-7 cells", "assay": "Mitochondria and cytochrome c immunostaining", "assay_type": "cell-based, human", "details": "at IC50 value, 24 h", "text": "In order to establish whether the observed cell death could be ascribed to the induction of the apoptotic pathway, we performed immunostaining assays using an anti-cytochrome c (cyt c) antibody and the mitochondrial probe MitoTracker Deep Red FM, which would allow us to verify whether cyt c was released from mitochondria to the cell cytoplasm or not. In Figure 6, panels B,C, it is possible to visualize the intracellular localization of cyt c (green fluorescence) and mitochondria (red fluorescence). […] Indeed, as visible in the overlay channel (panel D), the two fluorescence signals (red and green) were no longer superimposable.\nCells grown on glass coverslips in full medium were serum-deprived for 24 h, then the compound (or only vehicle) was added (24 h, 7e at its IC50 value). Next, cells were incubated with a staining solution containing MitoTracker® Deep Red FM probe (MitoTracker® Mitochondrion-Selective Probes, Invitrogen European Headquarters, Paisley PA4 9RF, UK; fluorescence excitation = 644, fluorescence emission = 665) for 20 min, at 37 °C. After a PBS wash, cells were fixed (cold methanol, 15 min at −20 °C) and incubated with the mouse anti-cytochrome c (556 433) primary antibody, purchased from BD, diluted in the blocking solution (4 °C/overnight), as described in [60]. […]"}, "caspase-9": {"test_system": "caspase-9", "assay": "Caspase-Glo assay, caspase-9", "assay_type": "cell-based, human", "details": "MCF-7 cells, at IC50 value, 24 h, vs vehicle", "description": "(§4) Once established that mitochondria were damaged and cyt c released into the cytoplasm, we evaluated the ability of compound 7e treatment (used at its IC50 value) in modulating caspase activity.\n(§5) The caspase-Glo Assay (Caspase-Glo® 3/7, 8 and 9 Assay Systems, Promega Corporation, Madison, WI) was used to detect caspase-3/7, -8 and -9 activities, as reported in [82]. Briefly, cells were grown in white-walled 96-well plates, treated with the compound, and 100 µL of each […] was added.\n(§6) Figure 7 Caspase activity in MCF-7 cells. […] Columns mean, bars SD; * p < 0.001; n.s., not significant (treated vs. CTRL)."}, "caspase-8": {"test_system": "caspase-8", "assay": "Caspase-Glo assay, caspase-8", "assay_type": "cell-based, human", "details": "MCF-7 cells, at IC50 value, 24 h, vs vehicle", "description": "as §4, §5, §6"}, "hTopo II": {"molecular_target": "T1, hTopo II (Homo sapiens, UniProt P11388)", "T1 construct": "purchased TopoGEN, Port Orange, FL", "T1 sequence (P11388 whole entry)": "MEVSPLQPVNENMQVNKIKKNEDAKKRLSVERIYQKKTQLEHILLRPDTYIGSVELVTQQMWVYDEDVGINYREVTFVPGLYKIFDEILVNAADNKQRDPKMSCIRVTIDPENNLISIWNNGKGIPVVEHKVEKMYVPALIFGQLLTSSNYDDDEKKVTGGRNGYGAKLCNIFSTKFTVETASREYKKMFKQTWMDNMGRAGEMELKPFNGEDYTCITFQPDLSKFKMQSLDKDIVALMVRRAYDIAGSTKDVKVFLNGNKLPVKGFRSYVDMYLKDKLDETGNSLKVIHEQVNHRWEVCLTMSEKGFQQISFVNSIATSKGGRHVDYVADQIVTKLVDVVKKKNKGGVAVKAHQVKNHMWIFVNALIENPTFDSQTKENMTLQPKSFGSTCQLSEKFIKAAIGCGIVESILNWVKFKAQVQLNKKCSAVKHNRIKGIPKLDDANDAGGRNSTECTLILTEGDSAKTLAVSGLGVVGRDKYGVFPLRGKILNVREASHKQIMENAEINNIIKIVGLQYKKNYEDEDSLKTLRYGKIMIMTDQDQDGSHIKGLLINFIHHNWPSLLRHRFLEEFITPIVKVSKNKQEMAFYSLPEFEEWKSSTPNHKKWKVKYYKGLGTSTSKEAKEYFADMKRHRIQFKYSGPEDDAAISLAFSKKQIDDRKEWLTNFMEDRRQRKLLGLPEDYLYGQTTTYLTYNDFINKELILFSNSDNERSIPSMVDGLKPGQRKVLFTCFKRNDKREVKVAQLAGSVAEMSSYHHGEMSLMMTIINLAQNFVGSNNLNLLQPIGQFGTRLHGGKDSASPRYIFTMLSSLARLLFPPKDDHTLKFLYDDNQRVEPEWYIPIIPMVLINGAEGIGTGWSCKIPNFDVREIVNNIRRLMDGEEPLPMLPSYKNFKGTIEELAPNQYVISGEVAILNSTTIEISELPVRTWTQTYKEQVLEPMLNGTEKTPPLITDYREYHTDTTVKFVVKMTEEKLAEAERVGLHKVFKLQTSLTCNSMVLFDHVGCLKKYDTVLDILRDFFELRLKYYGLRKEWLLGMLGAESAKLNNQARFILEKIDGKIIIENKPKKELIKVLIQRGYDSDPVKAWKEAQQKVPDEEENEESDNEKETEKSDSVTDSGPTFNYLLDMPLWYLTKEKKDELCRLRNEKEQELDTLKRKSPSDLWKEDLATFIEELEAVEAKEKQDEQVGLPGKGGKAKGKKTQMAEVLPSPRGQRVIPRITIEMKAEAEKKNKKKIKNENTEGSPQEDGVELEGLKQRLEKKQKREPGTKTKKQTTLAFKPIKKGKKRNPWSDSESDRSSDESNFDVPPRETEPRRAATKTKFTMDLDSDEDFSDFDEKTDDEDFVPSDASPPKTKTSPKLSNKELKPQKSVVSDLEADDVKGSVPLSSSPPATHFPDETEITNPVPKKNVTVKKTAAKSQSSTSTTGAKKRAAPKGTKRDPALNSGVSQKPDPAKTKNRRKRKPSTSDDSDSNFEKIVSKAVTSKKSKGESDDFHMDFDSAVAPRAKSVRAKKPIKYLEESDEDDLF", "assay": "hTopo II decatenation assay", "assay_type": "biochemical", "set-up": "key to Topoisomerase Inhibition hTopo II: (+) inhibition; (−) no inhibition; (+/−) partial inhibition", "description": "The linear kDNA (Figure 4a,b, lanes A), decatenated kDNA (Figure 4a,b, lanes B) and the catenated circles of kDNA (Figure 4a,b, lanes C) were used as markers. A parallel experiment was performed using ellipticine as reference molecule.\nhTopo I relaxation assays were performed by incubating the substrate (supercoiled pHOT1) with the recombinant hTopo I (TopoGEN, Port Orange, FL, USA) and compounds, as indicated in the supplier protocol (TopoGEN, Port Orange, FL, USA), with some revisions. hTopo II decatenation assays were conducted by incubating the kinetoplast DNA substrate (kDNA) with the hTopo II (TopoGEN, Port Orange, FL) and studied compounds, as indicated in the supplier procedures (TopoGEN, Port Orange, FL, USA), with some changes as in [80].\nFigure 4 hTopo II decatenation assay. […] The same experiment was performed using ellipticine (c). Lane 1, decatenated kDNA marker; lane 2, linear kDNA marker; lane 3, CTRL (DMSO), lanes 4–5, ellipticine 10 and 50 µM, respectively."}, "caspases 3/7": {"test_system": "caspases 3/7", "assay": "Caspase-Glo assay, caspase-3/7", "assay_type": "cell-based, human", "details": "MCF-7 cells, at IC50 value, 24 h, vs vehicle", "description": "as §4, §5, §6"}},
  "data": [
    {"smiles": "COc1cc(/C=C2\\SC(=O)N(CC(=O)Nc3nc(-c4ccc(Br)cc4)cs3)C2=O)cc(OC)c1OC", "note": "[compound 7e, (Z)-2-(5-(3,4,5-Trimethoxybenzylidene)thiazolidin-2,4-dion-3-yl)-N-(4-(4-bromophenyl)thiazol-2-yl)acetamide]", "values": [
      {"measurement": "IC50", "setting": "[1]; Homo sapiens, MCF7, MTT, 72 h", "value": "3.1 ± 0.6", "unit": "µM"},
      {"measurement": "fold more active against MCF-7 than against mouse BALB/3T3 embryonic fibroblasts", "setting": "[1]; MCF-7 vs BALB/3T3 IC50", "value": "about 11 fold"},
      {"measurement": "IC50", "setting": "[2]", "value": "35 ± 0.6", "unit": "µM"},
      {"measurement": "IC50", "setting": "[3]", "value": "> 100", "unit": "µM"},
      {"measurement": "IC50", "setting": "[4]", "value": "41.2 ± 0.9", "unit": "µM"},
      {"measurement": "cytochrome c release from mitochondria into the cytoplasm", "setting": "MCF-7 cells", "value": "cyt c was released into the cell cytoplasm"},
      {"measurement": "caspase-9 activity", "setting": "caspase-9", "value": "noticeable increase"},
      {"measurement": "caspase-8 activity", "setting": "caspase-8", "value": "no change"},
      {"measurement": "Topoisomerase Inhibition hTopo II", "setting": "hTopo II; 10 µM", "value": "−"},
      {"measurement": "Topoisomerase Inhibition hTopo II", "setting": "hTopo II; 50 µM", "value": "+"},
      {"measurement": "caspases 3/7 activity", "setting": "caspases 3/7", "value": "higher activity"}
    ]}
  ]
}
